These results are taken from patent publication US20250145619A1, “KHK INHIBITOR, PREPARATION METHOD THEREFOR AND USE THEREOF” (YOUNGENE THERAPEUTICS CO., LTD, priority 2022, published 2025).

The experiment concerns the target KHK—C (Homo sapiens (Human), UniProt P50053). Briefly: KHK—C ADP-Glo kinase inhibitory activity assay. Type of experiment: biochemical. Particulars: 1 nM KHK—C, 200 μM D-Fructose, 100 μM ATP, ADP-Glo luminescence. From the text:
(KHK—C ADP-Glo Kinase Inhibitory Activity Assay)
Y=Bottom+(Top−Bottom)/(1+10^((LogIC50−X)×HillSlope)) • X: Log value of compound concentration • Y: Inhibition ratio (%)
[formula] • Negative control: DMSO
For orientation: ADP-Glo turns the ADP formed in a reaction into a luminescent signal.

Chain of KHK—C (P50053 whole entry): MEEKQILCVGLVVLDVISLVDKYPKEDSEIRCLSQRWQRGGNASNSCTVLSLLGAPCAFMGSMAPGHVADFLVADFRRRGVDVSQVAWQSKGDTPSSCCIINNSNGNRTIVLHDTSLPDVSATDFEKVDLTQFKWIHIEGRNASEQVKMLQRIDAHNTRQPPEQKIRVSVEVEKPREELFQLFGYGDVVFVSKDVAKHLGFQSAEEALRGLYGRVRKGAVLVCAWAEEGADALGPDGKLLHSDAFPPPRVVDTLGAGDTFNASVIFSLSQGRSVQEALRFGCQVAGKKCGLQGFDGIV

The term IC50 denotes the concentration at which inhibition is half-maximal. A lower IC50 goes with greater potency. `C[C@H]1CCN1c1nc(N2CCC(CC(=O)O)C2)c2c(n1)C(F)(F)CC2` (stereo partly drawn) [Example 32, 2-(1-(7,7-difluoro-2-((S)-2-methylazetidine-1-yl)-6,7-dihydro-5H-cyclopentadiene[d]pyrimidin-4-yl)pyrrolidin-3-yl)acetic acid] gave an IC50 of 10.4 nM.

As to `C[C@H]1CCN1c1nc(N2CC[C@@H](CCC(=O)O)C2)cc(C(F)(F)F)c1C#N` [Example 21, 3-((R)-1-(5-cyano-6-((S)-2-methylazetidine-1-yl)-4-(trifluoromethyl)pyridin-2-yl)pyrrolidin-3-yl)propionic acid], it took 81.2 nM to reach half-maximal inhibition (IC50).

Consider `C[C@H]1CCN1c1nc(N2CC[C@H](CCC(=O)O)C2)cc(C(F)(F)F)c1C#N` [Example 20, 3-((S)-1-(5-cyano-6-((S)-2-methylazetidine-1-yl)-4-(trifluoromethyl)pyridin-2-yl)pyrrolidin-3-yl)propionic acid], for which the half-inhibitory concentration (IC50) is 15.4 nM.
